According to US10131652B2, “Pyrimidinyloxy benzene derivatives as herbicides” (E. I. DU PONT DE NEMOURS AND COMPANY, priority 2014, dated 2018):

Assays:
Test in all cases: Test G flooded paddy rice/weed plant response
Format in all cases: in vivo
Settings in all cases: Flood, 21 days, scale 0 to 100 (0 no effect, 100 complete control)
[1] = test system: barnyardgrass (Echinochloa crus-galli)
From the text: (§1) Three plastic pots (ca. 16-cm diameter) per rate were partially filled with sterilized Tama silt loam soil comprising a 35:50:15 ratio of sand, silt and clay and 2.6% organic matter. Separate plantings for each of the three pots were as follows. Seeds from the U.S. of monochoria (Monochoria vaginalis), small-flower umbrella sedge (Cyperus difformis), hardstem bulrush (Scirpus juncoides), and redstem (purple redstem, Ammannia coccinea), were planted into one 16-cm pot for each rate. Seeds from the U.S. of rice flatsedge (Cyperus iria), bearded sprangletop (Leptochloa fascicularis), one stand of 9 or 10 water seeded rice seedlings (Indica rice, Oryza sativa), and two stands of 3 or 4 transplanted rice seedlings (Oryza sativa cv. ‘Japonica—M202’) were planted into one 16-cm pot for each rate. Seeds from the U.S. of bamyardgrass (Echinochloa crus-galli), and late watergrass (Echinochloa oryzicola) were planted into one 16-cm pot for each rate. Plantings were sequential so that crop and weed species were at the 2.0 to 2.5-leaf stage at time of treatment.
(§2) Potted plants were grown in a greenhouse with day/night temperature settings of 30/27° C., and supplemental balanced lighting was provided to maintain a 16-hour photoperiod. Test pots were maintained in the greenhouse until test completion.
(§3) At time of treatment, test pots were flooded to 3 cm above the soil surface, treated by application of test compounds directly to the paddy water, and then maintained at that water depth for the duration of the test. Effects of treatments on rice and weeds were visually evaluated by comparison to untreated controls after 21 days. Plant response ratings, summarized in Table G, are based on a scale of 0 to 100 where 0 is no effect and 100 is complete control. A dash (-) response means no test result.

[2] = test system: bearded sprangletop (Leptochloa fascicularis)
From the text: as §1, §2, §3

[3] = test system: late watergrass (Echinochloa oryzicola)
From the text: as §1, §2, §3

[4] = test system: monochoria (Monochoria vaginalis)
From the text: as §1, §2, §3

[5] = test system: small-flower umbrella sedge (Cyperus difformis)
From the text: as §1, §2, §3

[6] = test system: water seeded rice seedlings (Indica rice, Oryza sativa)
From the text: as §1, §2, §3

FC(F)c1cc(-c2ccccc2Oc2ncc(Cl)cn2)no1 [Compound 35, 5-chloro-2-[2-[5-(difluoromethyl)-3-isoxazolyl]phenoxy]pyrimidine]
Plant response rating, Barnyardgrass ([1]; 32 g ai/ha): 30 | Plant response rating, Barnyardgrass ([1]; 64 g ai/ha): 45 | Plant response rating, Barnyardgrass ([1]; 125 g ai/ha): 100 | Plant response rating, Barnyardgrass ([1]; 250 g ai/ha): 100 | Plant response rating, Sprangletop, Brdd. ([2]; 32 g ai/ha): 60 | Plant response rating, Sprangletop, Brdd. ([2]; 64 g ai/ha): 100 | Plant response rating, Sprangletop, Brdd. ([2]; 125 g ai/ha): 100 | Plant response rating, Sprangletop, Brdd. ([2]; 250 g ai/ha): 100 | Plant response rating, Watergrass, Late ([3]; 32 g ai/ha): 0 | Plant response rating, Watergrass, Late ([3]; 64 g ai/ha): 30 | Plant response rating, Watergrass, Late ([3]; 125 g ai/ha): 40 | Plant response rating, Watergrass, Late ([3]; 250 g ai/ha): 100 | Plant response rating, Monochoria ([4]; 32 g ai/ha): 98 | Plant response rating, Monochoria ([4]; 64 g ai/ha): 100 | Plant response rating, Monochoria ([4]; 125 g ai/ha): 100 | Plant response rating, Monochoria ([4]; 250 g ai/ha): 100 | Plant response rating, Sedge, Umbrella ([5]; 32 g ai/ha): 0 | Plant response rating, Sedge, Umbrella ([5]; 64 g ai/ha): 98 | Plant response rating, Sedge, Umbrella ([5]; 125 g ai/ha): 100 | Plant response rating, Sedge, Umbrella ([5]; 250 g ai/ha): 100 | Plant response rating, Rice, Water Seeded ([6]; 32 g ai/ha): 60 | Plant response rating, Rice, Water Seeded ([6]; 64 g ai/ha): 70 | Plant response rating, Rice, Water Seeded ([6]; 125 g ai/ha): 100 | Plant response rating, Rice, Water Seeded ([6]; 250 g ai/ha): 100
